Experimental data from ChEMBL document CHEMBL5385858, “Identification of novel Pyrrolo[2,3-d]Pyrimidine-based KRAS G12C inhibitors with anticancer effects” (Eur J Med Chem, 2023).
Active and inactive are the calls of the source. The calls are words filed in the database; no cut-off is given here.

Key:
SOS1-KRAS = SOS1-KRAS (Homo sapiens, UniProt P01116, G12C); assay: Inhibition of KRAS G12C mutant/SOS1 (unknown origin) interaction incubated for 2 hrs in presence of GTP by HTRF assay; assay type: protein-complex assay
Chain of SOS1-KRAS (P01116 whole entry G12C, looked up): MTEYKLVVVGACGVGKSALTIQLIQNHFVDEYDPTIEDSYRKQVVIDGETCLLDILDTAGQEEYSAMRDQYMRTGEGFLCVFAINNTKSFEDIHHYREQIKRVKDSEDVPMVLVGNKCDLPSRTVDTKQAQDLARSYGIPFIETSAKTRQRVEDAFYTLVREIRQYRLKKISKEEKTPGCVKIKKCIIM

NCI-H358 [1] = assay: Induction of apoptosis in human NCI-H358 cells assessed as necrotic cells at 0.1 uM incubated for 24 hrs by Annexin V-FITC/PI staining based flow cytometry (reference value: 1.88 %); assay type: functional
NCI-H358 [2] = assay: Induction of apoptosis in human NCI-H358 cells assessed as early apoptotic cells at 0.1 uM incubated for 24 hrs by Annexin V-FITC/PI staining based flow cytometry (reference value: 5.4 %); assay type: functional
NCI-H358 [3] = assay: Antiproliferative activity against human NCI-H358 cells harboring KRAS G12C/Y96D mutant assessed as inhibition of cell proliferation incubated for 48 hrs by CCK8 assay; assay type: functional, cell-based
NCI-H358 [4] = assay: Antiproliferative activity against human NCI-H358 cells harboring KRAS G12C mutant assessed as inhibition of cell proliferation incubated for 3 days by CCK8 assay; assay type: functional, cell-based; conditions: NCI-H358, 72 h
NCI-H358 [5] = assay: Induction of apoptosis in human NCI-H358 cells assessed as late apoptotic cells at 0.1 uM incubated for 24 hrs by Annexin V-FITC/PI staining based flow cytometry (reference value: 1.32 %); assay type: functional
NCI-H1975 = assay: Antiproliferative activity against human NCI-H1975 cells harboring wild-type KRAS assessed as inhibition of cell proliferation incubated for 3 days by CCK8 assay; assay type: functional, cell-based; conditions: NCI-H1975, 72 h
MIA PaCa-2 = assay: Antiproliferative activity against human MIA PaCa-2 cells harboring KRAS G12C mutant assessed as inhibition of cell proliferation incubated for 3 days by CCK8 assay; assay type: functional, cell-based; conditions: MIA PaCa-2, 72 h
NCI-H358 [6] = assay: Inhibition of cell invasion in human NCI-H358 cells measured for 24 hrs by transwell assay; assay type: functional, cell-based
A549 = assay: Antiproliferative activity against human A549 cells harboring KRAS G12S mutant assessed as inhibition of cell proliferation incubated for 3 days by CCK8 assay; assay type: functional, cell-based; conditions: A549, 72 h
NCI-H358 [7] = assay: Inhibition of cell migration in human NCI-H358 cells at 0.1 uM measured for 48 hrs by wound scratch assay; assay type: functional, cell-based
NCI-H358 [8] = assay: Induction of apoptosis in human NCI-H358 cells assessed as viable cells at 0.1 uM incubated for 24 hrs by Annexin V-FITC/PI staining based flow cytometry (reference value: 91.4 %); assay type: functional
NCI-H358 [9] = assay: Antitumor activity in human NCI-H358 cells xenografted in BALB/c-nu/nu mouse assessed as tumor growth inhibition at 10 mg/kg, po qd treated for 20 days relative to control; assay type: functional; conditions: time 20 day

| SMILES | IC50 (SOS1-KRAS) [µM] | further results |
| --- | --- | --- |
| C=CC(=O)N1CCN(c2nc(OCCN(C(C)C)C(C)C)nc3c2cc(-c2cccc4cccc(C)c24)n3C)C[C@@H]1CC#N | > 10 | – |
| C=CC(=O)N1CCN(c2nc(OC[C@@H]3CCCN3C)nc3c2cc(-c2cccc4cccc(OC)c24)n3C)C[C@@H]1CC#N | > 10 | – |
| C=CC(=O)N1CCN(c2nc(N3CCN(C)CC3)nc3c2cc(-c2cccc4cccc(C)c24)n3C)C[C@@H]1CC#N | > 10 | – |
| C=CC(=O)N1CCN(c2nc(OCC34CCCN3CCC4)nc3c2cc(-c2cccc4cccc(C)c24)n3C)C[C@@H]1CC#N | 0.34 | – |
| C=C(F)C(=O)N1CCN(c2nc(OC[C@@H]3CCCN3C)nc3c2CCN(c2cccc4cccc(Cl)c24)C3)C[C@@H]1CC#N [ADAGRASIB] | – | Activity (NCI-H358 [1]): 1.04%; Activity (NCI-H358 [2]): 14.5%; inhibition (NCI-H358 [3]): inactive; IC50 (NCI-H358 [4]): 0.02 µM; Activity (NCI-H358 [5]): 4.52%; IC50 (NCI-H1975): 6.37 µM; IC50 (MIA PaCa-2): 0.05 µM; Activity (NCI-H358 [6]): Dose-Dependent Effect; IC50 (A549): 12.9 µM; Activity (NCI-H358 [7]): Active; Activity (NCI-H358 [8]): 79.9%; TGI (NCI-H358 [9]): 69.3% |
| C=CC(=O)N1CCN(c2nc(N3CCOCC3)nc3c2cc(-c2cccc4cccc(C)c24)n3C)C[C@@H]1CC#N | > 10 | – |
| C=CC(=O)N1CCN(c2nc(NCCN(C)C)nc3c2cc(-c2cccc4cccc(C)c24)n3C)C[C@@H]1CC#N | > 10 | – |
| C=CC(=O)N1CCN(c2nc(OC[C@@H]3CCCN3C)nc3c2cc(-c2c(C)ccc4c2cnn4C)n3C)C[C@@H]1CC#N | > 10 | – |
| C=CC(=O)N1CCN(c2nc(OCCN(C)C)nc3c2cc(-c2cccc4cccc(C)c24)n3C)C[C@@H]1CC#N | > 10 | – |
| C=CC(=O)N1CCN(c2nc(OC[C@@H]3CCCN3C)nc3c2cc(-c2cc(OC)cc4ccccc24)n3C)C[C@@H]1CC#N | > 10 | – |
| C=CC(=O)N1CCN(c2nc(OC[C@@H]3CCCN3C)nc3c2cc(-c2cccc4cccc(C)c24)n3C)C[C@@H]1CC#N | 1.54 | – |
| C=CC(=O)N1CCN(c2nc(OC[C@H]3CCCN3C)nc3c2cc(-c2cccc4cccc(C)c24)n3C)C[C@@H]1CC#N | 1.94 | – |

Further lines, with some results ahead:

| IC50 (SOS1-KRAS) [µM] | SMILES | further results |
| --- | --- | --- |
| > 10 | C=CC(=O)N1CCN(c2nc(OC[C@@H]3CCCN3C)nc3c2cc(-c2ccc4[nH]ncc4c2)n3C)C[C@@H]1CC#N | – |
| 3.24 | C=CC(=O)N1CCN(c2nc(OC[C@@H]3CCCN3C)nc3c2cc(-c2cccc4cccc(O)c24)n3C)C[C@@H]1CC#N | – |
| 2.04 | C=CC(=O)N1CCN(c2nc(OC[C@@H]3CCCN3C)nc3c2cc(-c2cc(O)cc4ccccc24)n3C)C[C@@H]1CC#N | – |
| > 10 | C=CC(=O)N1CCN(c2nc(OC[C@@H]3CCCN3C)nc3c2cc(-c2c(C)ccc4[nH]ncc24)n3C)C[C@@H]1CC#N | – |
